Earlier results as cited in US20080096864A1, “Treatment Of Gastrointestinal Stromal Tumors With Imatinib And Midostaurin” (priority 2003, published 2008).

Test system: advanced GIST
Settings: GIST patients on imatinib, one study

Question: With `Cc1ccc(NC(=O)c2ccc(CN3CCN(C)CC3)cc2)cc1Nc1nccc(-c2cccnc2)n1` [imatinib] as the molecule, how does the “primary resistance to imatinib, share of patients” value read?
Answer: 13.7 % of patients
